Results taken from article PMC11177969, “Comprehensive Analyses of the Effects of the Small-Molecule Inhibitor of the UHM Domain in the Splicing Factor U2AF1 in Leukemia Cells” (Research Square, 2024).
Read-outs that look alike come from different tables or passages of the source. Each block holds one compound with its values, some of them ahead of it.

Assays:
[1] = molecular target: T1, SPF45-UHM (Homo sapiens, UniProt Q96I25); assay: HTRF assay; type: binding; conditions: Fig. 2C; SD of 2 independent experiments in parentheses
T1 sequence (Q96I25 306-385 limits assumed): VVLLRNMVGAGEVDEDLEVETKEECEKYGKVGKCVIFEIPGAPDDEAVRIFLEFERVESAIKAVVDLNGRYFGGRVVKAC
Source text: (§1) To determine the selectivity of SF1–8 against other homologous UHM domains, we measured the IC50 values of SF1–8 to RBM39-UHM, SPF45-UHM and PUF60-UHM using the HTRF assay.[42] […] In the chemical synthesis (Scheme S1), methylation on the pyrazole group in SF1–8 can occur at the N8 or N9 position (Fig.2C). Although the NMR spectra can be used to infer the methyl group position on the pyrazole, we determined the crystal structure of a SF1–8 precursor to clearly confirm the methyl group is at N9 in SF1–8 (Fig.2C). To further probe the interaction of SF1–8 with U2AF1-UHM, we synthesized SF1–8 analogs and developed the structure activity relationship (SAR) (Fig.2C). […] A longer alkyl group was tolerated at the N8 position but not at the N9 position. […] The crystal structure of a 7c precursor experimentally determined from SCXRD again confirmed the location of the propyl group (Fig. 2C).

[2] = molecular target: T2, PUF60-UHM (Homo sapiens, UniProt Q9UHX1); assay: HTRF assay; type: binding; conditions: Fig. 2C
T2 sequence (Q9UHX1 462-549 limits assumed): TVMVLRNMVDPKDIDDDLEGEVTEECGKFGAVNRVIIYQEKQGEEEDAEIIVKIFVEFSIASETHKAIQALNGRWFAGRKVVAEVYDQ
Source text: as §1

[3] = molecular target: T3, RBM39-UHM (Homo sapiens, UniProt Q14498); assay: HTRF assay; type: binding; conditions: Fig. 2C; SD of 2 independent experiments in parentheses
T3 sequence (Q14498 445-508 limits assumed): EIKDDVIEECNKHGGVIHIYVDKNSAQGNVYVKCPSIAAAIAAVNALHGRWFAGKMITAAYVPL
Source text: as §1

[4] = molecular target: T4, U2AF1-UHM (Homo sapiens, UniProt Q01081); assay: HTRF assay, inhibition of binding between U2AF1-UHM and U2AF2-ULM
T4 construct: we screened the CCG fragment library from University of Michigan against the U2AF1-UHM domain using the Thermal Shift Assay (TSA)
T4 sequence (Q01081 65-147 limits assumed): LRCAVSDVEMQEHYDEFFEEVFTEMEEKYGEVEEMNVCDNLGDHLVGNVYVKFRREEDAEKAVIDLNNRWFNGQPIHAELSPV
Source text: TSA data provided no information of the binding site in U2AF1-UHM. To identify the binding sites of both hits to U2AF1-UHM, we synthesized CCG211578 (named Hit1/SF1–8) and CCG210084 (named Hit2/9 in Fig.2C) and asked if they inhibited the binding between U2AF1-UHM and U2AF2-ULM using our previously developed HTRF assay.[42] […] The IC50 values of SF1–8 and Hit2 correlated with the ΔTm values observed in TSA. We have reported that the conserved Trp binding site in U2AF1-UHM dominated the binding affinity between U2AF2-ULM and U2AF1-UH.[42]

[5] = test system: K562-U2AF1^S34F; design: method as in PMID 33689684; conditions: cited from earlier work
[6] = test system: K562-U2AF1^S34F; assay: Growth inhibition / cell viability (CellTiter-Glo); type: cell-based
Source text: (§2) Previous studies that introduced U2AF1^S34F in lung epithelial (HBEC3kt)[43], leukemia (K562)[38],[44],[45], and iPSC[37] cell lines have validated the function of U2AF1^S34F in these engineered cell lines while mutation of Q157 is less studied. We therefore focused our study on U2AF1^S34F and examined the effects of SF1–8 on a panel of leukemia cell lines including K562, U937, HL60 with isogenic overexpression of U2AF1^wt or U2AF1^S34F, K562 with isogenic overexpression of SRSF2^wt or SRSF2^P95H, and K562 with Crispr/Cas9 edited SF3B1^wt or SF3B1^E700K (denoted as K562-U2AF1^wt, K562-U2AF1^S34F, U937-U2AF1^wt, U937-U2AF1^S34F, HL60-U2AF1^wt, HL60-U2AF1^S34F, K562-SRSF2^wt, K562-SRSF2^P95H, K562-SF3B1^wt, K562-SF3B1^E700K). […] The data obtained from the engineered leukemia cell lines prompted us to query the activity of SF1–8 in primary MDS cells.
(§3) Figure 3. Growth inhibition activities of SF1–8 in U2AF1, SF3B1, SRSF2 mutant, wild-type leukemia cell lines (A) Dose dependent growth inhibition of U2AF1^S34F, SF3B1^E700K, SRSF2^P95H mutant and isogenic wild-type cell lines by the treatment of SF1–8. (B) Titration of SF1–8 against K562-U2AF1^wt, K562-U2AF1^S34F, MV4–11, HL60 cells using the CellTiter-Glo assay. (C) Toxicity of SF1–8 in human primary MDS cells (U2AF1^S34F) and healthy bone marrow cells.

[7] = test system: K562-U2AF1^wt; assay: Growth inhibition / cell viability (CellTiter-Glo); type: cell-based
Source text: as §2, §3

[8] = test system: bone marrow cells of healthy control; assay: Colony formation assay; type: cell-based, human; conditions: 1 to 20 μM
Source text: as §2

[9] = test system: bone marrow cells from an MDS specimen that harbored U2AF1^S34F; assay: Toxicity in primary MDS cells; type: cell-based; conditions: Homo sapiens, Bone marrow cell, U2AF1^S34F VAF 41%, read-out: viable cells
Source text: as §2, §3

[10] = test system: HL60-U2AF1^S34F; assay: Dose dependent growth inhibition; type: cell-based; conditions: Fig. 3A
Source text: as §2, §3

[11] = test system: HL60-U2AF1^wt; assay: Dose dependent growth inhibition; type: cell-based; conditions: Fig. 3A
Source text: as §2, §3

[12] = test system: K562-SF3B1^wt; assay: Dose dependent growth inhibition; type: cell-based; conditions: Fig. 3A
Source text: as §2, §3

[13] = test system: K562-SF3B1^E700K; assay: Dose dependent growth inhibition; type: cell-based; conditions: Fig. 3A
Source text: as §2, §3

[14] = test system: U937-U2AF1^S34F; assay: Dose dependent growth inhibition; type: cell-based; conditions: Fig. 3A
Source text: as §2, §3

[15] = test system: U937-U2AF1^wt; assay: Dose dependent growth inhibition; type: cell-based; conditions: Fig. 3A
Source text: as §2, §3

[16] = test system: K562-SRSF2^wt; assay: Dose dependent growth inhibition; type: cell-based; conditions: Fig. 3A
Source text: as §2, §3

[17] = test system: K562-SRSF2^P95H; assay: Dose dependent growth inhibition; type: cell-based; conditions: Fig. 3A
Source text: as §2, §3

[18] = molecular target: T4, U2AF1-UHM; assay: Thermal Shift Assay (TSA) fragment library screening; type: binding; conditions: confirmatory screening in triplicate, read-out: ΔTm (melting temperature change) of U2AF1-UHM
Protocol: To develop a different targeting strategy, we assessed potential tractable binding sites in U2AF1 using computational analysis and determined that the UHM domain of U2AF1 was for identifying hits (Fig.S1).[42] To discover hits, we screened the CCG fragment library from University of Michigan against the U2AF1-UHM domain using the Thermal Shift Assay (TSA). An initial single concentration screening at 200 μM led to identify 149 compounds that gave positive shifts of the melting temperature (ΔTm) in U2AF1-UHM. These compounds were subject to a secondary confirmatory screening in triplicate at 200 μM.

[19] = test system: HL-60; assay: Growth inhibition titration (CellTiter-Glo); type: cell-based; conditions: Homo sapiens, native cell line carrying U2AF1^wt
Source text: as §2, §3

[20] = test system: MV-4–11; assay: Growth inhibition titration (CellTiter-Glo); type: cell-based; conditions: Homo sapiens, MV4-11; native cell line carrying U2AF1^wt
Source text: as §2, §3

[21] = test system: healthy control cells; assay: Toxicity in healthy control cells; type: cell-based, human; conditions: as much as 10 μM
Source text: as §2, §3

[22] = test system: K562-U2AF1^S34F cells; assay: Western blots of select genes; type: cell-based; conditions: western blot
Source text: To understand the underlying mechanisms of the differential effects of SF1–8 on K562-U2AF1^S34F, we performed an RNA-seq experiment on K562-U2AF1^S34F cells treated with SF1–8 and control (Fig.4). […] When the 99 genes were mapped to KEGG pathways, the top six enriched pathways were protein digestion and absorption, extracellular matrix-receptor interaction, focal adhesion, PI3K-Akt signaling pathway, human papillomavirus infection, and AGE-RAGE signaling pathway (Fig.S2). To determine if the protein levels of these genes were affected by their mRNA changes, we performed the western blots of select genes. […] Because of the role U2AF1 in RNA splicing, we asked if analysis of the isoform pattern changes may provide insight to explain the different observations between RNA-seq and western blot data. In the transcript analysis, we identified low FPKM numbers of three BCL2 transcripts (Fig.S3) that explained the relatively low BCL2 protein levels in K562. A significant increase of the BCL-2b transcript was also found. […] Besides BCL2, BCLXL (encoded by BCL2L1) and MCL1 have isoforms (BCL-XS and MCL-1S) that had apoptotic functions. K562 cells expressed only the anti-apoptotic MCL1 transcript and the expression was not affected by SF1–8 (not shown). […] Another frequently studied gene involved in apoptosis regulation is survivin.[48],[49]
Figure 4. RNA-seq experiment of K562-U2AF1^S34F cells treated with SF1–8 and the western blot of select genes. […] (C) Western blots of c-CBL, ATF3, and BCL-2 in K562-U2AF1^wt, K562-U2AF1^S34F treated with SF1–8. (D) Heatmap of top 99 differentially regulated genes in K562-U2AF1^S34F treated with SF1–8.

[23] = Fig. 2C, SD of 2 independent experiments in parentheses, read-out: IC50 U2AF1
[24] = representative titration curves, Fig. 2B, read-out: IC50 against U2AF1-UHM

SMILES: CC(C)n1nc(O)cc1C1(C)CCNCC1 [8d]
IC50 [1]: 354 µM
IC50 [2]: 459 µM
IC50 [3]: 395 µM
IC50 [4, 23]: 71.6 µM

SMILES: CCC1(c2cc(O)nn2C)CCNCC1 [8e]
IC50 [1]: 179 µM
IC50 [2]: 592 µM
IC50 [3]: 335 µM
IC50 [4, 23]: 46.5 µM

SMILES: CC1(C)C2CCC(CN=C(N)CSS(=O)(=O)O)C1C2 (centres unmarked) [NSC194308]
fold lower IC50 value in K562-U2AF^S34F than in K562-U2AF1^wt [5]: 2–3 fold
selectivity between K562-U2AF1^S34F and K562-U2AF1^wt [5]: 2 fold

SMILES: Cn1nc(C2(C)CCNCC2)cc1O [SF1–8]
IC50 [1]: 748 µM
IC50 [2]: 523 µM
IC50 [3]: 221 µM
effect on cell viability ([6]; Fig. 3A): selectively decreased the viability
IC50 ([6]; dose titration, CellTiter-Glo): 1.98 µM
effect on cell viability ([7]; Fig. 3A): but not their isogenic wild-type cells
activity in dose titration ([7]; dose titration, CellTiter-Glo): no activity
toxicity in colony formation assay [8]: no significant toxicity
viability at 10 µM [9]: 20%
effect on cell viability [10]: reduced cell viability
effect on cell viability [11]: reduced cell viability
effect on cell viability [12]: but not their isogenic wild-type cells
effect on cell viability [13]: selectively decreased the viability
effect on cell viability [14]: no activity
effect on cell viability [15]: no activity
effect on cell viability [16]: no activity
effect on cell viability [17]: no activity
IC50 [4, 23]: 59.33 ± 0.02 µM
selectivity against three other UHM domains ([4]; U2AF1-UHM vs RBM39-UHM, SPF45-UHM, PUF60-UHM): 4–12 fold
IC50 [4, 24]: 59.3 µM
ΔTm at 200 µM [18]: 2.02 °C
IC50 [19]: > 100 µM
IC50 [20]: > 100 µM
effect on viable cells [21]: did not significantly decrease 20% of viable cells
ATF-3 protein level [22]: increase of ATF-3 was confirmed
BCL2 protein level [22]: decreased BCL2
c-CBL protein level [22]: no change of c-CBL

Other lines, results leading:

IC50 [1]: 362 µM
IC50 [2]: 621 µM
IC50 [3]: 386 µM
IC50 [4, 23]: 34.1 µM
SMILES: CCCn1nc(O)cc1C1(C)CCNCC1 [8c]

IC50 [1]: > 1000 µM
IC50 [2]: 992 µM
IC50 [3]: 686 µM
IC50 [4, 23]: 343 ± 62.4 µM
IC50 [4, 24]: 328 µM
ΔTm at 200 µM [18]: 1.5 °C
SMILES: CC1(c2cc(O)[nH]n2)CCNCC1 [compound 9]
